Results reported in article PMC9964140, “Exploration of Succinimide Derivative as a Multi-Target, Anti-Diabetic Agent: In Vitro and In Vivo Approaches” (Molecules, 2023).
Values belong to the compound of their own block, whether it stands above or below them.

Key:
Antioxidant (DPPH) test = settings: DPPH free radical scavenging
Description: For identifying free radicals and the scavenging potential of new organic compounds, Sigma Aldrich USA’s DPPH was employed. Methanol was employed as a solvent for preparing test samples of varying strengths of the examined substances. Two milliliters of the test sample’s variation strength were blended separately with two milliliters of the DPPH solution and 0.002% methanol. After being stored in the dark and at room temperature for 30 min, test tubes were examined using a UV spectrophotometer to measure the absorbance at 517 nm. As is customary, ascorbic acid was employed here, and the procedure was then repeated three times. Utilizing the formula below, the tested specimen’s scavenging activity was calculated: Scavenging activity % = (A − B)/A × 100. The letters “A” and “B” stand for the absorbance of the DPPH and the test sample, respectively. By plotting a graph of the scavenging effect of the tested compounds versus the concentration of the corresponding solution, IC50 values were determined.

PTP1 B = target: T1, PTP1 B (Homo sapiens, UniProt P18031); assay: Protein tyrosine phosphatase 1 B (PTP1 B) test; assay type: biochemical; settings: ± SEM; pH 7, 40 min at 27 °C
T1 sequence (P18031 1-435): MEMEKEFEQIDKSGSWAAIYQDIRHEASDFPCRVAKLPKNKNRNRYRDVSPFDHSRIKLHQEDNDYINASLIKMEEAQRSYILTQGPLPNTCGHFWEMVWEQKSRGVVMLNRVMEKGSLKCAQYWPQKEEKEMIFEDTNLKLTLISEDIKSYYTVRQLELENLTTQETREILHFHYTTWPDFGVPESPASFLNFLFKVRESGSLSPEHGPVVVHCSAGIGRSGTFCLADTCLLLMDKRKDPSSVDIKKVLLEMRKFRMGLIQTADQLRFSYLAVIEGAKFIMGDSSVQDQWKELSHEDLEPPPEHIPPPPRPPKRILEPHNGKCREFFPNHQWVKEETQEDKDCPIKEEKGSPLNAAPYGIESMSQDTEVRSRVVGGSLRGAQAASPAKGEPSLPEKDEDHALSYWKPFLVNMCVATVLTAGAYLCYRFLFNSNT
Description: It is performed with a buffer solution of 3,3-dimethyl glutarate at a pH of 7. Additionally, a PTP1 B 10 mM solution, p-NO2-phenol phosphate of 1 mM, and numerous additional concentrations of the substance were made. As a result, the mixtures were incubated for 40 min at 27 °C. Then, measurements of the absorbances were conducted at 405 nm after the designated 40 min.

diabetic mice = assay: In vivo anti-diabetic assay (blood glucose, 21 days); design: species or system albino mice
Excerpt: For in vivo anti-diabetic efficacy, albino mice having weight of 30 g were employed. The animals utilized in experiments were compliant with the 2008 Animal Bye-Laws of the Pharmacy Department at the University of Malakand in Pakistan (Scientific Procedure Issue-I). The animals were handled according to accepted practices and housed in an animal facility during the experimental procedures. The animals were put to death following the experiment in accordance with AVMA rules.
The mice were given 10% alloxan monohydrate at a dose of 150 mg/kg body weight through IP in order to induce diabetes. The control group received a normal saline IP during this trial. Following the administration of alloxan, the animals’ blood glucose levels were checked using a glucometer. According to the protocols, in the in vivo study, mice with elevated blood sugar concentrations were also utilized.
(§1) The mice were placed into 4 groups, with 5 animals in each group having elevated blood glucose levels. Group I was the normal group, which had normal blood glucose levels and was given saline. Group II was treated with a Tween 80 solution; in this group, diabetic mice were kept. Glibenclamide was administered at a 500 μM/Kg dose to group III, which was the control group with diabetic mice. Group IV, the final group, received treatment with different concentrations of the produced substance. The mice were killed after three weeks (21 days) by cervical decapitation, and blood samples and organs were taken for H & E staining-based histological analysis and for bioassays.

[1] = system: STZ-induced diabetic mice; assay: Body weight, insulin, lipid profile, serum markers and histopathology in STZ-induced diabetic mice; assay type: in vivo; settings: for histopathology of liver, kidney and pancreas: H & E staining; for effect on body weight of diabetic mice: treated; for insulin levels: treated STZ-induced diabetic mice, untreated diabetic group 2.5 ± 0.15, normal control 13.5 ± 0.95
Description: as §1

DPP-4 = DPP-4 (Homo sapiens, UniProt P27487); assay: Dipeptidyl peptidase-4 (DPP-4) fluorescence probe test; assay type: biochemical; settings: ± SEM; read-out: IC50 DPP4
Description: Our compound’s inhibitory impact on the DPP-4 target was identified by a fluorescence probe in vitro assay. […] In a 96-well microplate reader, the test results were recorded. At first, various concentrations of the chemical were used to determine its action. Then, in accordance with the normal approach, a dose-dependent response was identified in order to estimate the IC50 value.

α-Glucosidase = assay: Alpha-glucosidase test; assay type: biochemical; settings: ± SEM
Description: A concentration of 0.5 mg/11 mL distilled water and a substrate solution of glucopyranoside at 15 mg/10 mL distilled water concentration were added to […] of a phosphate buffer and kept at 37 °C for 20 min, respectively, to prepare the sample. To prepare the control, 1200 μL of the phosphate buffer was added to the test tube. Next, 400 μL of the substrate solution (glucopyranoside 15 mg/10 mL distilled water) and 800 µL of an enzyme solution were mixed. At last, the temperature was kept at 37 °C for 20 min.

α-Amylase = assay: Alpha-amylase test; assay type: biochemical; settings: ± SEM
Description: In order to evaluate the alpha-amylase test, standardized reporting protocols were followed [35]. In order to combine the enzyme and the phosphate buffer, test samples of varying strengths were added to the enzymatic solution. Incubation of the sample was followed by admixing of starch to both the control and test solutions and a dinitro salicylic acid solution. The sample combination was then maintained in a boiling water bath for a short period of time, and a microplate reader was used to measure the absorbance at 656 nm.
The formula below was used to calculate the α-amylase enzyme’s percentage inhibition capability: Percent Inhibition=Absorbance of Control − Absorbance of Sample ×100/Absorbance of Control

mice = settings: mouse, in vivo
Description: Prior to putting the drug through tests on lab animals, its acute toxicity was determined. Two groups of experimental mice, (1) the control group and (2) the test group, were used for this experiment. Each group consisted of five mice. It was conducted intraperitoneally with different concentrations of the chemical. The mice were then closely examined for three days in the animal home after the chemical was administered to check for death or any unfavorable reactions.

[2] = diabetic mice, compared to diabetic mice not given the medication

Sequence of DPP-4 (P27487 whole entry, species assumed): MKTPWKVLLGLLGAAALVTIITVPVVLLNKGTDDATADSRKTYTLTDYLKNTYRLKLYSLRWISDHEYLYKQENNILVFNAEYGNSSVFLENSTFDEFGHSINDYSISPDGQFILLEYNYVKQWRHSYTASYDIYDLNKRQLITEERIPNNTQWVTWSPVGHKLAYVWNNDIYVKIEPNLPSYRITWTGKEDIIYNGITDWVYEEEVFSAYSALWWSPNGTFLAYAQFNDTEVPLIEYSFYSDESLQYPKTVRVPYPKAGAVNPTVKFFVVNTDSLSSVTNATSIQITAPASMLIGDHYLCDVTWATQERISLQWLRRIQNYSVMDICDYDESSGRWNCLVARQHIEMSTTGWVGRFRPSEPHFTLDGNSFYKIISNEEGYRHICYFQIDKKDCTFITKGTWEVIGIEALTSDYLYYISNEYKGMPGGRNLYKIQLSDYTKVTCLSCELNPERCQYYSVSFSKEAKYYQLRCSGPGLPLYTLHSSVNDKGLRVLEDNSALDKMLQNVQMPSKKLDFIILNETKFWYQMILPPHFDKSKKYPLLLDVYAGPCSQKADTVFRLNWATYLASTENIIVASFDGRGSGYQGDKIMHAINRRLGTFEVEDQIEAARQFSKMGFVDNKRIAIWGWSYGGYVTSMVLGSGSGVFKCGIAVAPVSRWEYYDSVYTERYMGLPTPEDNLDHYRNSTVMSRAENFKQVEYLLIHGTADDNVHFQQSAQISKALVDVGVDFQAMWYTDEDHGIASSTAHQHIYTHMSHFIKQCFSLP

IC50 (Antioxidant (DPPH) test): 1.44 ± 0.2 µM
Compound: O=C1O[C@H]([C@@H](O)CO)C(O)=C1O [Ascorbic acid, reference compound]

Compound: COc1cc(CC(C)=O)ccc1OC1CC(=O)N(Cc2ccccc2)C1=O (stereo not shown) [Compound 3, 1-benzyl-3-(2-methoxy-4-(2-oxopropyl)phenoxy)pyrrolidine-2,5-dione]
IC50 (PTP1 B): 13.2 ± 0.11 µM | Blood Glucose Level 0 Day (diabetic mice; 15.625 µM/kg IP): 22.7 mmole per Liter | Blood Glucose Level 7th Day (diabetic mice; 15.625 µM/kg IP): 19.7 mmole per Liter | Blood Glucose Level 14th Day (diabetic mice; 15.625 µM/kg IP): 17.6 mmole per Liter | Blood Glucose Level 21st Day (diabetic mice; 15.625 µM/kg IP): 15.1 mmole per Liter | Blood Glucose Level 0 Day (diabetic mice; 31.25 µM/kg IP): 22.9 mmole per Liter | Blood Glucose Level 7th Day (diabetic mice; 31.25 µM/kg IP): 19.1 mmole per Liter | Blood Glucose Level 14th Day (diabetic mice; 31.25 µM/kg IP): 17.1 mmole per Liter | Blood Glucose Level 21st Day (diabetic mice; 31.25 µM/kg IP): 13.6 mmole per Liter | Blood Glucose Level 0 Day (diabetic mice; 62.5 µM/kg IP): 23.2 mmole per Liter | Blood Glucose Level 7th Day (diabetic mice; 62.5 µM/kg IP): 19.3 mmole per Liter | Blood Glucose Level 14th Day (diabetic mice; 62.5 µM/kg IP): 16.7 mmole per Liter | Blood Glucose Level 21st Day (diabetic mice; 62.5 µM/kg IP): 13.1 mmole per Liter | Blood Glucose Level 0 Day (diabetic mice; 125 µM/kg IP): 22.6 mmole per Liter | Blood Glucose Level 7th Day (diabetic mice; 125 µM/kg IP): 18.9 mmole per Liter | Blood Glucose Level 14th Day (diabetic mice; 125 µM/kg IP): 16.2 mmole per Liter | Blood Glucose Level 21st Day (diabetic mice; 125 µM/kg IP): 12.8 mmole per Liter | Blood Glucose Level 0 Day (diabetic mice; 250 µM/kg IP): 22.4 mmole per Liter | Blood Glucose Level 7th Day (diabetic mice; 250 µM/kg IP): 18.4 mmole per Liter | Blood Glucose Level 14th Day (diabetic mice; 250 µM/kg IP): 15.7 mmole per Liter | Blood Glucose Level 21st Day (diabetic mice; 250 µM/kg IP): 12.2 mmole per Liter | body weight gain ([1]; STZ + compound 3 group (Tg-5), final vs initial day, diabetic group lost 1.9 ± 0.05 g): 1.55 g | BUN ([1]; STZ-induced diabetic mice): decreased the excess peak | HDL levels ([1]; STZ-induced diabetic mice): raising HDL levels | LDL levels ([1]; STZ-induced diabetic mice): dramatically reduced | creatinine ([1]; STZ-induced diabetic mice): decreased the excess peak | serum ALP ([1]; STZ-induced diabetic mice): suppressed the enhanced rise | serum ALT ([1]; STZ-induced diabetic mice): suppressed the enhanced rise | serum AST ([1]; STZ-induced diabetic mice): suppressed the enhanced rise | histopathology of liver, kidney and pancreas ([1]; STZ-induced diabetic mice): healed from the histological injuries | effect on body weight of diabetic mice ([1]; STZ-induced diabetic mice): recovered their bodyweight | reduction of total cholesterol [1, 2]: 34.9% | reduction of total triglycerides [1, 2]: 35.20% | effect on body weight of non-diabetic mice ([1]; non-diabetic group): did not affect the body weights | insulin levels [1]: 10.9 ± 0.25 ng/mL | IC50 (DPP-4): 0.07 ± 0.03 µM | IC50 (α-Glucosidase): 7.2 ± 0.92 µM | IC50 (Antioxidant (DPPH) test): 3.31 ± 0.65 µM | IC50 (α-Amylase): 15.4 ± 0.15 µM | acute toxicity: allergic reaction (mice): no sign of an allergic reaction | acute toxicity outcome (mice; ip): safe and had no adverse effects

Compound: COc1ccc(Cl)cc1C(=O)NCCc1ccc(S(=O)(=O)NC(=O)NC2CCCCC2)cc1 [Glibenclamide, reference compound]
Blood Glucose Level 0 Day (diabetic mice; 250 µM/kg IP): 21.5 mmole per Liter | Blood Glucose Level 7th Day (diabetic mice; 250 µM/kg IP): 17.7 mmole per Liter | Blood Glucose Level 14th Day (diabetic mice; 250 µM/kg IP): 14.5 mmole per Liter | Blood Glucose Level 21st Day (diabetic mice; 250 µM/kg IP): 11.1 mmole per Liter

Compound: CN(C)C(=N)N=C(N)N [Metformin, reference compound]
serum ALP ([1]; STZ-induced diabetic mice): suppressed the enhanced rise | serum ALT ([1]; STZ-induced diabetic mice): suppressed the enhanced rise | serum AST ([1]; STZ-induced diabetic mice): suppressed the enhanced rise | histopathology of liver, kidney and pancreas ([1]; STZ-induced diabetic mice): healed from the histological injuries | effect on body weight of diabetic mice ([1]; STZ-induced diabetic mice): recovered their bodyweight | insulin levels [1]: 12.2 ± 0.29 ng/mL
